Drawing on PubChem BioAssay AID743499 (The Scripps Research Institute Molecular Screening Center, 2014), this text covers inhibition for 36 compounds.

The test system of this assay is Crimean-Congo hemorrhagic fever virus L protein ovarian tumor domain protease (vOTU). Briefly: PubChem AID 743499. The note with it: purified CCHFV vOTU, di-Ub K63 fluorescence cleavage, hits give high values.

Active and inactive are the calls of the source. No rule for the calls is given here.

In general, inhibition refers to the relative decrease from the control value, in per cent. In the case of `COc1cc(NC(=O)COC(=O)c2ccc([N+](=O)[O-])s2)cc(OC)c1OC`, where the note is “at 21.72 µM”, the inhibition is 82.2%.
For `Cc1ccc(N2C(=O)[C@@H]3[C@H](C2=O)C2c4ccccc4C=CN2[C@@H]3C(=O)c2ccco2)cc1` (stereo partly specified), where the note is “at 5.2 µM”, the inhibition was 31.4%.
Turning to `O=C(NC1=CC(=O)c2ccccc2C1=O)c1ccccc1`, under “at 12.37 µM”, the inhibition is 33.4%.
Consider `CC1CCCC(NC(=O)COC(=O)c2ccc([N+](=O)[O-])s2)C1C` (stereo unspecified), for which, where the note is “at 31.32 µM”, the inhibition was 43.6%.
For the compound `Nc1cc2c(cc1Br)[nH]c(=O)c1ccccc12`, the inhibition (at 4.57 µM) was 4.29% (inactive).
Consider `Cc1ccc2c(c1C)-c1c(ccc(C)c1C)C(=O)C2=O`, for which the inhibition (at 18.9 µM) is 55.7%.
Turning to `O=C1Cc2ccccc2C(=O)N1`, the inhibition (at 0.6 µM) is 39.2%.
Turning to `O=C(COC(=O)c1ccc([N+](=O)[O-])s1)NCc1ccc(F)cc1`, the inhibition (at 40.58 µM) is 70%.
Turning to `COC(CNC(=O)c1ccc2c3c(onc13)-c1ccccc1C2=O)OC`, the inhibition (at 24.19 µM) was 46%.
On to `O=c1[nH]c(Nc2ccccc2)cc2cc(Br)ccc12`, for which the inhibition (at 1.45 µM) was 22%.
Turning to `Cc1c(Cl)cnc(NC(=O)COC(=O)c2ccc([N+](=O)[O-])s2)c1Cl`, the inhibition (at 20.44 µM) was 76.2%.
Take `Cc1ccc(NC2=CC(=O)C(=O)c3ccccc32)cc1`: where the note is “at 12.24 µM”, the inhibition was 103%.
Turning to `Cc1ccccc1-c1cc2c(nn1)-c1ccccc1C2=O`, the inhibition (at 4.5 µM) was 14.8% (inactive).
As to `COc1cc(Br)c(C(=O)c2nccc3cc(OC)c(OC)cc23)cc1OC`, the inhibition (at 1.13 µM) is 21%.
On to `O=C1Cc2ccccc2C(=O)N1CCc1ccccc1`, for which, for the setting “at 3.02 µM”, the inhibition was 11.1% (inactive).
Turning to `O=C1Cc2ccccc2C(=O)N1Cc1ccccc1`, under “at 1.31 µM”, the inhibition was 37.1%.
On to `O=C(COC(=O)c1ccc([N+](=O)[O-])s1)Nc1ccc(F)cc1`, for which the inhibition (at 26.34 µM) is 99.5%.
For the compound `Cn1nc(-c2ccccn2)nc2c(=O)n(C)c(=O)nc1-2`, the inhibition (at 1.16 µM) was 75.7%.
Turning to `O=C(OCc1nnc(-c2ccccc2)o1)c1ccc([N+](=O)[O-])s1`, the inhibition (at 26.04 µM) is 99.5%.
On to `CN(C1=C(NC(=O)c2ccccc2)C(=O)c2ccccc2C1=O)C1CCS(=O)(=O)C1` (stereo unspecified), for which the inhibition (at 19.18 µM) is 27.5%.
`COc1ccc2noc3c2c1C(=O)c1ccccc1-3`: the inhibition (at 6.28 µM) was 27.6%.
As to `NS(=O)(=O)c1ccc(NC(=O)COC(=O)c2ccc([N+](=O)[O-])s2)cc1`, the inhibition (at 29.01 µM) is 94.1%.
Consider `O=C1C=C(Nc2ccccc2)c2ccccc2C1=O`, for which, for the setting “at 15.55 µM”, the inhibition is 89.1%.
As to `O=C(/C=C/c1ccc(O)cc1)c1ccc(NC2=C(N3CCCCC3)C(=O)c3ccccc3C2=O)cc1`, under “at 10.17 µM”, the inhibition is 38.1%.
Take `CCn1nc(/C=C/c2ccccc2)nc2c(=O)n(C)c(=O)nc1-2`: the inhibition (at 0.49 µM) was 96.1%.
On to `NS(=O)(=O)c1ccc(NC2=CC(=O)C(=O)c3ccccc32)cc1`, for which the inhibition (at 11.51 µM) is 44.4%.
In the case of `O=C(NC1=C(NC2CCS(=O)(=O)C2)C(=O)c2ccccc2C1=O)c1ccccc1` (stereo unspecified), the inhibition (at 14.2 µM) is 43.9%.
Regarding `NC1=C(Cl)C(=O)c2ccc(S(N)(=O)=O)cc2C1=O`, for the setting “at 0.39 µM”, the inhibition is 50.5%.
For the compound `CC1COCC(C)N1C1=C(Cl)C(=O)c2ccccc2C1=O` (stereo unspecified), the inhibition (at 14.67 µM) is 24.6%.
In the case of `COc1ccccc1NC(=O)COC(=O)c1ccc([N+](=O)[O-])s1`, where the note is “at 35.07 µM”, the inhibition is 84.1%.
As to `O=C(COC(=O)c1ccc([N+](=O)[O-])s1)Nc1ncc(C(F)(F)F)cc1Cl`, the inhibition (at 27.79 µM) was 68.2%.
As to `COC1=C(N)C(=O)c2nc(C)ccc2C1=O`, the inhibition (at 4.98 µM) was 53.1%.
For the compound `CCc1cc[n+](C2=C(NS(=O)(=O)c3cccs3)C(=O)c3ccccc3C2=O)cc1`, the inhibition (at 14.16 µM) was 50.9%.
As for `O=C(c1ccco1)[C@@H]1[C@@H]2C(=O)N(c3ccc(Br)cc3)C(=O)[C@@H]2C2c3ccccc3C=CN21` (stereo partly specified), the inhibition (at 11.01 µM) is 59.9%.
Regarding `CC1(C)C=C2C(=NN(c3ccccc3)C(N)=C2C#N)CO1`, where the note is “at 23.49 µM”, the inhibition was 76.2%.
For `CCOC(=O)N=Nc1c2ccccc2c2nc3no[nH]c3nc12`, the inhibition (at 7.75 µM) was 24.5%.
